Measured values published in patent publication US20250263771A1, “SYSTEM AND METHODS TO MEASURE CELL VIABILITY IN HIGH THROUGHPUT VIA CONTINUOUS GEOMETRY” (priority 2022, published 2025).
Like-named read-outs stand apart in the source and are kept apart here.

Tests used:
S. typhimuirium = conditions: DPI crossed with ciprofloxacin or gentamicin
Description: (§1) Strains and growth conditions: E. coli strain BW25113 was used unless otherwise noted in the text. This strain was acquired from the Yale Coli Genetic Stock Center. E. coli was grown in LB (Sigma Aldrich) at 37° C. in a shaking incubator. B. subtilis strain W168 was a kind gift from the Garner lab and was grown in LB at 37° C. in a shaking incubator. P. putida strain KT2440 was a kind gift from Jacob Fenster and was grown in LB at 30° C. in a shaking incubator. S. typhimurium strain SL1344 was a kind gift from the Corrie Detweiler and was grown in LB at 37° C. in a shaking incubator. S. cerevisiae strain BY4741 was a kind gift from Roy Parker and was grown in YEPD at 30° C. in a shaking incubator. P. aeruginosa strain PA01 was a kind gift from the Zemer Gitai and was grown in LB at 37° C. in a shaking incubator. Knockouts were selected from the Keio collection (Dharmacon). The PEC promoter library in E. coli was acquired from Dharmacon (PEC3877).

[1] = test system: cytoplasmic superoxide (ROS) in E. coli; assay: Single-cell CellROX fluorescence (ROS levels) over time; type: cell-based, Escherichia coli; conditions: for effect on ROS (CellROX signal) over time: lethal dose, compared to untreated control
Description: (§2) Microscopy measurements: For all microscopy experiments, cells from overnight cultures were diluted 1:100 in minimal media (PMM) and shaken for 2 hours at 37° C. to ensure cells had exited lag phase. After 2 hours of growth, 2 μL of dilute cell culture was added to the top of a cooled, 200 μL 2% low melt agarose pad with CellROX dye (5 μM). The agarose pad was molded to fit in 96-well square bottom plates (Brooks Automation, MGB096-1-2-LG-L). After 10 minutes of drying, the pad with affixed cells was inverted and pressed into the bottom of an imaging plate. Fields of view (FOV) were selected manually on the microscope. After FOVs were selected and before the imaging started, the drug was added on top as done previously.

[2] = test system: promoters of genes downstream of lexA (pol, dinB, dinG, yjiH, lexA)
Source text: (§3) Filamentation is a classic hallmark of SOS activation and increases in ROS are an established SOS activator. Therefore, Applicants wondered if DPI was activating SOS. Applicants examined the promoter activity of genes downstream of lexA using the PEC GFP-promoter library. LexA is a master transcriptional repressor of genes in the SOS regulon such as pol, dinB, dinG, and yjiH, and is auto-catalytically degraded by activated recA.
as §1, §2

[3] = test system: E. coli, stationary phase and exponential phase; assay: GVA viability screen of an 80-compound drug library, 96 well format; type: cell-based, Escherichia coli; conditions: treated for 4 hours, duplicate
Description: FIGS. 27A-B: Screen of compounds that affect viability in exponential and stationary phase using data from a GVA assay in 96 well format drug testing. The antibiotic potential of a drug library (80 compounds) was tested against exponential and stationary phase bacteria in duplicate. (A) Viability reduction of compounds in exponential (top) and stationary (bottom) phase cells. Each x is the mean of 2 biological replicates. (B) Scatter plot of the viability screen comparing exponential and stationary phase activity. Each blue dot represents the mean of 2 replicates of a compound treatment. Red dots represent DMSO controls. The dashed lines represent 3 times the standard deviation of the negative controls. Screen was performed with E. coli with both stationary phase and exponential phase bacterial populations. Both phases were screened in duplicate. 80 compounds and 16 controls were screened. Cells in stationary and exponential phase were treated with the compound for 4 hours, followed by casting into pipet tips using the GVA protocol.

E. coli [4] = conditions: 4 hours of treatment, less than 10 μg/mL DPI
Source text: as §3, §2

E. coli [5] = conditions: DPI and ciprofloxacin, optical density over 8 hours
Source text: FIG. 6A-I: DPI generates ROS, activates the SOS response, and antagonizes ciprofloxacin. a) Median, single-cell CellROX signal as a function of time for DPI (blue), ciprofloxacin (orange), and an untreated control (yellow). b) Efficacy of DPI in aerobic and anaerobic conditions. […] Brightness and contrast is the same for all images. […] The dose response for the wild-type (WT) cells is depicted in green or purple, respectively. Shaded errorbars equal to the standard deviation in logspace between 3 replicates. […] Each square in the heatmap was the mean of duplicate conditions. Colorbar correspond to the log10 (CFUs/mL) for each dose combination. […] Optical density was measured for each condition over 8 hours and the integrated area under the growth curve (AUGC) is depicted (colorbar). i) Dose response curves for temporally staggered combinations. All treatments lasted for 24 hours total. Pretreated conditions were treated for 2 hours with a single drug followed by 22 hours with both drugs.
To test for antagonism, Applicants measured viability in a time-resolved, checkerboard assay using GVA (FIGS. 6f, 21). In the checkerboard assay, DPI was combined with either ciprofloxacin or gentamicin across a 6×6 dose matrix. The ease of GVA enabled sampling the checkerboard over time, resulting in a complete pharmacokinetic profile of the drug-drug interaction.

E. coli knockout mutants = test system: E. coli knockout mutants
Description: as §1
(§4) For stationary phase treatments, bacterial cells were grown overnight (≥16 hours) in a shaking incubator (180 RPM). For P. putida only, cells were grown for 2 days. Upon entering the stationary phase, cells were distributed into a 96 well flat-bottom plates with 100 μL of cells per well. Drug treatments at 1000× were plated into a separate 96 well-round bottom plate. A 100 nL pin transfer was used to dilute the drug plate into the cell plate at a 1:1000 ratio. This plate was then placed into a shaking incubator for the experimental time. To measure antibiotic treatments in the exponential phase, overnight culture was diluted 1:1000 into fresh LB. This culture was then placed into the incubator for 2 hours. After this incubation, the cells were then distributed to the 96 well plate followed by drug treatment.
(§5) Embedding for GVA: The goal for embedding was to have a uniformly mixed sample in liquid hydrogel that would quickly solidify the 3D mold. Applicants used 0.5% agarose as a convenient hydrogel that would solidify quickly and prevent cell motility once solidified.

stationary phase E. coli = conditions: for increase in viability as compared to either drug alone: 24 hours treatment
Description: as §4, §5

E. coli strain BW25113 = assay: Geometric Viability Assay (GVA) of drug-treated stationary and exponential E. coli cultures; type: cell-based, Escherichia coli; conditions: for activity in dose response, stationary versus exponential cultures (follow up of Enzo library hits): stationary and exponential cultures; for activity in aerobic versus anaerobic environments: stationary phase cells; for resistance of stationary phase cells compared with exponentially growing cells: 3 antibiotics, 6 concentrations, 5 durations; for reduction in viability: within an hour
Source text: Previous studies have found slow growth is a non-inheritable form of antibiotic tolerance buying time for viable cells to develop genetic resistance. Slow-growing cells commonly have reduced metabolic activity and DNA replication as compared to exponentially growing cells. As a result, slow-growing cells are refractory to antibiotics targeting DNA synthesis (fluoroquinolones), protein translation (aminoglycosides), and cell wall biogenesis (beta-lactams). Growth-dependent tolerance can only be observed by measuring viability but the tedium and cost of the drop CFU assay limits extensive profiling. Using GVA, Applicants directly compared the viability of exponentially growing cells and stationary phase cells to different doses of three antibiotics for varying amounts of time. In total, Applicants tested 3 antibiotics at 6 different concentrations for 5 different durations against stationary and exponential cells, in duplicate, for a total of 360 viability measurements (FIG. 5a,b).
To explore the GVA technique's potential for high throughput viability measurements, Applicants screened the ICCB Enzo Bioactive library (469 compounds) against stationary and exponentially growing cultures (FIG. 5c,d). […] The viability of BW25113 E. coli treated with the Enzo library was measured in both exponential and stationary phase. Including controls and removing pipette errors, 2267 conditions were measured. […] Mitomycin C is a known antibiotic acting through DNA cross-linking. […] Phentolamine is an α-adrenergic receptor antagonist.
as §4, §5

[6] = 24 hours total, 2 hours single drug then 22 hours both drugs

c1ccc2c(c1)[I+]c1ccccc1-2 [DPI, diphenyleneiodonium]
antagonism of ciprofloxacin and gentamicin (S. typhimuirium): also observed | ROS after the initial decrease ([1]; lethal DPI dose): rapid spike in ROS | time to ROS nadir after the drug was added ([1]; lethal DPI dose): around 75 minutes | effect on ROS (CellROX signal) over time [1]: substantially decreased ROS | dinB, dinG, and yjiH promoter activity [2]: DPI-dependent increase | pol promoter activity ([2]; compared to a ribosomal protein control (rrnB)): persistent, dose-dependent induction | time to increased lexA promoter activity after DPI addition ([2]; lexA promoter): ≤ 90 min | dose giving the highest promoter activity ([2]; pol promoter, dose where filamentation was observed): 3 µg/mL | activity in viability screen [3]: bactericidal activity | cell morphology (E. coli [4]): formation of bacterial filaments | antagonism in growth inhibition assay (E. coli [5]): not observed | potency in knockouts of other DNA repair enzymes, redox repair enzymes, or ROS scavengers (E. coli knockout mutants; either growth phase): did not substantially change the potency | susceptibility of recA knockouts (E. coli knockout mutants; recA knockout, stationary and exponential phases): more susceptible to DPI | potency in yedZ and fre knockouts (E. coli knockout mutants; stationary cells): modestly increased the potency | effect of 2 hours DPI pretreatment before adding ciprofloxacin (stationary phase E. coli; [6]): further increased protection | effect of 2 hours ciprofloxacin pretreatment before DPI (stationary phase E. coli; [6]): reduced DPI's antagonistic effects | increase in viability as compared to either drug alone (stationary phase E. coli; DPI combined with ciprofloxacin): 1,000 fold | increase in viability as compared to either drug alone (stationary phase E. coli; DPI combined with gentamicin): 1,000 fold | activity in dose response, stationary versus exponential cultures (follow up of Enzo library hits) (E. coli strain BW25113): active against both stationary and growing cultures | efficacy on adding a ROS scavenger (ascorbic acid) (E. coli strain BW25113; increasing concentrations of ascorbic acid): reduced DPI efficacy | viability at intermediate concentrations (E. coli strain BW25113; intermediate DPI concentrations, GVA): maintained viability | activity in aerobic versus anaerobic environments (E. coli strain BW25113; 24 hours): less active in anaerobic cultures

Cc1cccc(CCN2CCC(C(=O)c3ccc(NS(C)(=O)=O)cc3)CC2)n1 [E-4031]
activity in dose response, stationary versus exponential cultures (follow up of Enzo library hits) (E. coli strain BW25113): did not have any dose-dependent effect on viability

CC1(C)S[C@@H]2[C@H](NC(=O)C(C(=O)O)c3ccccc3)C(=O)N2[C@H]1C(=O)O (some centres unmarked) [carbenicillin]
resistance of stationary phase cells compared with exponentially growing cells (E. coli strain BW25113; GVA): more resistant | change in viable cells (E. coli strain BW25113; exponential cells, 10 μg/mL, after 24 hours treatment): increase in viable cells | change in number of colonies (E. coli strain BW25113; exponential cells, 10 μg/mL, first 6 hours): no change in the number of colonies | decrease in viability (E. coli strain BW25113; exponential cells, 100 μg/mL, 24 hours): 10,000 fold | decline in viability (E. coli strain BW25113; stationary cells, 100 μg/mL, 24 hours): < 10 fold

O=C(O)c1cn(C2CC2)c2cc(N3CCNCC3)c(F)cc2c1=O [ciprofloxacin]
effect on ROS (CellROX signal) over time [1]: monotonically increasing levels of ROS | pharmacodynamic profile (E. coli strain BW25113; 10 μg/mL, initial killing within an hour, stable through 6 hours, second phase by 24 hours): biphasic pharmacodynamic profile | resistance of stationary phase cells compared with exponentially growing cells (E. coli strain BW25113; GVA): more resistant | reduction in viability (E. coli strain BW25113; exponentially growing cultures, 10 μg/mL): 10 fold | reduction in viability (E. coli strain BW25113; stationary cultures, 10 μg/mL): 10 fold | activity in aerobic versus anaerobic environments (E. coli strain BW25113; 24 hours): less active in anaerobic cultures

CO[C@@]12[C@H](COC(N)=O)C3=C(C(=O)C(C)=C(N)C3=O)N1C[C@@H]1N[C@@H]12 [mitomycin C]
activity in viability screen [3]: bactericidal activity | activity in dose response, stationary versus exponential cultures (follow up of Enzo library hits) (E. coli strain BW25113): more active against exponentially growing cells compared to cells in stationary phase

NC(=Nc1ccccc1)NC(=O)c1nc(Cl)c(N)nc1N [phenamil]
activity in dose response, stationary versus exponential cultures (follow up of Enzo library hits) (E. coli strain BW25113): did not have any dose-dependent effect on viability

Cc1ccc(N(CC2=NCCN2)c2cccc(O)c2)cc1 [phentolamine]
sensitivity of stationary versus exponentially growing cells (E. coli strain BW25113; high concentrations (20 μg/mL)): stationary cells were more sensitive

gentamicin
resistance of stationary phase cells compared with exponentially growing cells (E. coli strain BW25113; GVA): more resistant | activity in aerobic versus anaerobic environments (E. coli strain BW25113; 24 hours): less active in anaerobic cultures | reduction in stationary phase cell viability (E. coli strain BW25113; stationary phase, 10 μg/mL, full 24 hours): > 10 fold
